Experimental data: patent publication US20230295235A1, “COMPOUNDS TARGETING ALPHA4-BETA7 INTEGRIN” (ZEALAND PHARMA A/S, priority 2020, published 2023)

Target: T1, (α4β7-negative Th memory cells) (Homo sapiens, UniProt P05556+P13612)
T1 construct: endogenous in cells; host or cells: human whole blood
Experiment: Competition assay: inhibition of biotinylated rhVCAM-1-Fc binding to α4β7-negative Th memory cells in whole blood (FACS receptor occupancy)
Type: cell-based
Conditions: single donor, 4 mM MnCl2, α4β7-negative Th memory cells, read-out: IC50, VCAM binding
Description: The compound of Example 1 was used in competition assay on CD4+ integrin α4+β7-|o memory T cells.
Receptor occupancy in primary cells was determined by measuring the amount of biotinylated human recombinant MAdCAM-1-Fc or human recombinant VCAM-1-Fc bound to selected cell populations using flow cytometry. Human recombinant MAdCAM-1-Fc or human recombinant VCAM-1-Fc (R&D systems) were biotinylated using commercially available reagents and protocol (Pierce).
Whole blood was collected from human donors in sodium heparin tubes. A volume of 100 µL of blood was incubated with the compound of Example 1 and 4 mM MnCl2 for 1 hour at room temperature. Cells were washed twice with 1 mL of 1X Dulbecco’s phosphate buffered saline (DPBS) calcium magnesium free (CMF) (ThermoFisher Scientific) and resuspended in 100 µL of DPBS CMF. […]
Fluorescence-activated cell sorting (FACS) data was acquired by electronic gating on the basis of forward versus side scatter. […] Cell population were determined using the following markers: CD45+, CD3+, CD4+,CD45RO+, CD49d+, integrin β7, biotinylated ligands.
Compound receptor occupancy was defined as the decrease in the number of integrin β7+ or integrin β7-lo cells binding biotinylated rhMAdCAM-1 or rhVCAM-1, respectively. Receptor occupancy was calculated with the following equation: […]

T1 sequence (P13612 34-1032): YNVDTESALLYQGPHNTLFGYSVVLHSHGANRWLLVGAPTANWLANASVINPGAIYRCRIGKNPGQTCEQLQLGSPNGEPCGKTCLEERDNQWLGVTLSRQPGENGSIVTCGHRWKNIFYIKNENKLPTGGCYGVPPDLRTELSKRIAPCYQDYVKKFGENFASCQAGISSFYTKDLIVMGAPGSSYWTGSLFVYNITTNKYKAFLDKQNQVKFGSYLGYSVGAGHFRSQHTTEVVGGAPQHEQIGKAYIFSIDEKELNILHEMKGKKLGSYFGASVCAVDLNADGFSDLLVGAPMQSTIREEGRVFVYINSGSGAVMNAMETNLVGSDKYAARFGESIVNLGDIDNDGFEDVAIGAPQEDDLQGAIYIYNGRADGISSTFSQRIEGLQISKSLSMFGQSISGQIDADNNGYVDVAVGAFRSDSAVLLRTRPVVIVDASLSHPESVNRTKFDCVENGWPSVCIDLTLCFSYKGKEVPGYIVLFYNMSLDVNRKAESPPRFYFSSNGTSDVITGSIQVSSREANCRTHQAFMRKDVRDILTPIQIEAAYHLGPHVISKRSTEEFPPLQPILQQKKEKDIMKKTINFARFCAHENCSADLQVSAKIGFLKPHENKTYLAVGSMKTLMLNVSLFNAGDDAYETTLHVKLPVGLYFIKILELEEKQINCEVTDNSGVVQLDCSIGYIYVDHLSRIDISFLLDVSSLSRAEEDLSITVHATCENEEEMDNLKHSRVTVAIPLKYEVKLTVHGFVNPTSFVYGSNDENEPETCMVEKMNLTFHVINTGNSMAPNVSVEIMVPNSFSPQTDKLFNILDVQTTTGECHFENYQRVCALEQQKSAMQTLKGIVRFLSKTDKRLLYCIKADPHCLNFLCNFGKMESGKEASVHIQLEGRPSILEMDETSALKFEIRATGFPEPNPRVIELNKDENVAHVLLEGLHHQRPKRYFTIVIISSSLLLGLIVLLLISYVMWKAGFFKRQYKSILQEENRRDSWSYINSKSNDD
T1 sequence (P05556 21-798): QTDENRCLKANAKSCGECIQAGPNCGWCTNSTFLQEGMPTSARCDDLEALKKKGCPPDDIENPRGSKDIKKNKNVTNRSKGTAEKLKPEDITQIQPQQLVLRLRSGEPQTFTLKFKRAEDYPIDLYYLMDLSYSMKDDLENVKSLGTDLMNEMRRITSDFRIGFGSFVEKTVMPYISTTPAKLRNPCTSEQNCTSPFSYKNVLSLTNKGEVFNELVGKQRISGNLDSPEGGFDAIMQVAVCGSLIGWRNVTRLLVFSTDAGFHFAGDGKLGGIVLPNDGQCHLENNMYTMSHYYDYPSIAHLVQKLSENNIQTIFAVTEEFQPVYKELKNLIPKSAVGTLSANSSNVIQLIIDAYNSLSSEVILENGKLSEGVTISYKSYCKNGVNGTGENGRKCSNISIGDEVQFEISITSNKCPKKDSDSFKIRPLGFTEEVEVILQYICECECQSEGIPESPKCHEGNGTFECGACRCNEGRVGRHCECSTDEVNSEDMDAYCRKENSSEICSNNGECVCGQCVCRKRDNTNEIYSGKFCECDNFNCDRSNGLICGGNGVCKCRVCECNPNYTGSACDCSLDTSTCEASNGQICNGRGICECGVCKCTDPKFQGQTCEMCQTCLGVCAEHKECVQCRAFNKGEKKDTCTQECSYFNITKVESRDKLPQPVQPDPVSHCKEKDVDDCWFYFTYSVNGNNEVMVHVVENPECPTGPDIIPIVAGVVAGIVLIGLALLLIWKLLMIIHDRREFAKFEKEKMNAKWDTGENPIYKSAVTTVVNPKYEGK

SMILES: CC(C)C[C@@H]1NC(=O)c2ccc(-c3ccc(N4CCN(C(=O)c5ccccc5-c5ccccc5C(=O)N5CCN(c6ccc(-c7ccc8cc7CNC(=O)[C@@H]7CCCN7[C@H](C(=O)NC(C)(C)C)[C@H](C)NC(=O)[C@H]([C@@H](C)O)NC(=O)[C@H](CC(=O)O)NC(=O)[C@H](CC(C)C)NC8=O)cc6)CC5)CC4)cc3)c(c2)CNC(=O)[C@@H]2CCCN2[C@H](C(=O)NC(C)(C)C)[C@H](C)NC(=O)[C@H]([C@@H](C)O)NC(=O)[C@H](CC(=O)O)NC1=O [Example 1, 2,2′-((S,S,S,S,S,S,1^2,8S,11S,14S,17S,18S)-((([1,1′-Biphenyl]-2,2′-Dicarbonyl)-Bis(Piperazine-4,1-Diyl))Bis(4,1-Phenylene))Bis(18-(Tert-Butylcarbamoyl)-14-((R)-1-Hydroxyethyl)-8-Isobutyl-17-Methyl-2,6,9,12,15-Pentaoxo-3,7,10,13,16-Pentaaza-1(2,1)-Pyrrolidina-5(1,3)-Benzenacyclooctadecaphane-5^6,11-Diyl))-Diacetic Acid]
- IC50: ~600 nM
